Assay results published in patent publication US7833972B2, “Proteins and use thereof” (Takeda Pharmaceutical Company Limited, priority 2002, dated 2010).
Where a name gives a salt, the structure may show the parent alone.

Legend:
SST20-14 = experiment: Expression of SST20-14 mRNA in 3T3-L1 cell by insulin resistance inducing factor (TaqMan PCR); format: cell-based, mouse
Description: Analysis of Expression of Novel Secretory or Membrane Protein Gene by Insulin Resistance Inducing Factor
3T3-L1 cell was inoculated into 6-well plate at 4×10^5 cells/well of cell number and incubated on DMEM (Invitrogen) medium containing 10% fetal bovine serum (Invitrogen) at 37° C. for 5 days. The medium was exchanged to a differentiation medium [DMEM medium containing 250 nM dexamethasone (Sigma), 0.5 mM 1-methyl-3-isobutyl xanthine (Wako Pure Chemical Industries, Ltd.), 10 μg/ml insulin (Sigma) and 10% fetal bovine serum] and further incubated for 24 hours. In exchanging the medium to the differentiation medium, each of TNF-α (Genzyme Techne) at the concentration of 1 nM, 100 pM and 10 pM was added to the medium at the same time. After completing incubation, the medium was washed with PBS (Invitrogen), and the cells were collected. Total RNA was gathered from the collected cells using RNAeasy kit (Qiagen) according to the instructions attached to the kit. Using the gathered total RNA, expression amounts of SST20-14 and mRNA of 36B4 which is used as internal standard were quantified by TaqMan PCR (Applied Biosystems).

SST8-5 = experiment: Expression of SST8-5 mRNA in 3T3-L1 cell by an insulin sensitizer (TaqMan PCR); format: cell-based, mouse; settings: 10 μM, 72 hours in differentiation medium in the presence of insulin; 36B4 mRNA internal standard
Description: Analysis of Expression of Novel Secretory or Membrane Protein Gene by an Insulin Sensitizer 3T3-L1 cell was inoculated into 6-well plate at 4×10^5 cells/well of cell number and incubated on DMEM (Invitrogen) medium containing 10% fetal bovine serum (Invitrogen) at 37° C. for 5 days. The medium was exchanged to a differentiation medium [DMEM medium containing 250 nM dexamethasone (Sigma), 0.5 mM 1-methyl-3-isobutyl xanthine (Wako Pure Chemical Industries, Ltd.), 10 μg/ml insulin (Sigma) and 10% fetal bovine serum]. In exchanging the medium to the differentiation medium, pioglitazone hydrochloride (10 μM, Takeda Pharmaceutical Company, Ltd.) which is an insulin sensitizer was added to the medium, and incubated for 72 hours in the presence of insulin. After completing incubation, the medium was washed with PBS (Invitrogen), and the cells were collected. Total RNA was gathered from the collected cells using RNAeasy kit (Qiagen) according to the instructions attached to the kit. Using the gathered total RNA, expression amounts of SST8-5 and mRNA of 36B4 which is used as internal standard were quantified by TaqMan PCR (Applied Biosystems). As a result, the expression amount of SST8-5 increased 2.4-fold by addition of pioglitazone hydrochloride as compared with control (pioglitazone hydrochloride free).

3T3-L1 cell = experiment: Differentiation of preadipocyte strain 3T3-L1 into mature adipocyte (oil red-O staining of lipid drop accumulation); format: cell-based; settings: 3T3-L1 cell overexpressing SST20-14 (pCMV-SST20-14, Long form cDNA); differentiation medium 72 hours then 8 days; qualitative, microscopic observation
Description: Analysis of Action for Differentiation of Preadipocyte Strain 3T3-L1 into Mature Adipocyte
3T3-L1 cell was inoculated into 6-well plate at 2×10^5 cells/well of cell number, and incubated on DMEM (Invitrogen) medium containing 10% fetal bovine serum (Invitrogen) at 37° C. for 7 days, incubation solution was suctioned, and the well was washed twice with PBS (Invitrogen), and then 2 ml/well of OPTI-MEM (Invitrogen) was added thereto. OPTI-MEM (100 μl) and FuGENE™6 (10 μl, Roche) were mixed and stood still at room temperature for 5 minutes. Thereto was added […] of construct for expression pCMV-SST20-14 prepared by inserting SST20-14 (Long form) cDNA into EcoRI-HindIII cloning site of pCMV-Tag4A (Sigma) which is an expression plasmid, and the mixed solution was stood still at room temperature for 45 minutes. The solution containing the expression construct was added to the above-mentioned 3T3-L1 cell, and incubated at 37° C. for 6 hours, and then incubated on DMEM medium containing 10% fetal bovine serum at 37° C. for 40 hours. Then, the medium was exchanged to a differentiation medium [DMEM medium containing 250 nM dexamethasone (Sigma), 0.5 mM 1-methyl-3-isobutyl xanthine (Wako Pure Chemical Industries, Ltd.), 10 μg/ml insulin (Sigma) and 10% fetal bovine serum] and incubated for 72 hours. […]

TNF-α
reduction of expression amount of SST20-14 as compared with control (TNF-α free) (SST20-14; 1 nM TNF-α for 24 hours in differentiation medium, 36B4 mRNA internal standard): about 70% | change of expression amount of SST20-14 with TNF-α concentration (SST20-14; TNF-α 1 nM, 100 pM and 10 pM, 24 hours in differentiation medium): changed depending on added TNF-α concentration

CCc1ccc(CCOc2ccc(CC3SC(=O)NC3=O)cc2)nc1 (stereo not shown) [pioglitazone hydrochloride]
increase of expression amount of SST8-5 as compared with control (pioglitazone hydrochloride free) (SST8-5): 2.4 fold

B1: SST20-14: mouse white adipose tissue-derived secretory or membrane protein, SEQ ID NO: 2; overexpressed from pCMV-SST20-14 construct (protein, listed as Mus musculus)
chain: MAGSRGLPLLLLVLQLFLGPVLPVRAPVFGRSDTPTLSPEENEFVEEENQPVLVLSSEEPEPGPATVDCPRDCACSQEGVVDCGGIDLREFPGDLPEHTNHLSLQNNQLEKIYPEELSRLQRLETLNLQNNRLTSRGLPEEAFEHLTSLNYLYLANNKLTLAPRFLPNALISVDFAANYLTKIYGLTFGQKPNLRSVYLHNNKLADAGLPDHMFNGSSNVEILILSSNFLRHVPKHLPPALYKLHLKNNKLEKIPPGAFSELSNLRELYLQNNYLTDEGLDNETFWKLSSLEYLDLSSTNLSRVPAGLPRSLVLLHLEKNAIQSVEADVLTPIRNLEYLLLHSNQLQAKGIHPLAFQGLKKLHTVHLYNNALERVPSGLPRRVRTLMILHNQITGIGREDFATTYFLEELNLSYNRITSPQMHRDAFRKLRLLRSLDLSGNRLQTLPPGLPKNVHVLKVKRNELAALARGALAGMAQLRELYLTGNRLRSRALGPRAWVDLAGLQLLDIAGNQLTEVPEGLPPSLEYLYLQNNKISAVPANAFDSTPNLKGIFLRFNKLAVGSVVESAFRRLKHLQVLDIEGNFEFGNGSKDKDEEEEEEEEEEDEEEETR
accumulation of lipid drop as compared with control 3T3-L1 cell (3T3-L1 cell): reduced to a half or less
